Key:
Reg IIIβ gene = test: Gene expression inhibition by siRNA, Reg IIIβ mRNA by real-time quantitative RT-PCR; format: cell-based, rat; conditions: INS-1 cells, siRNA 100 nM, 24 hours after introduction
Method: (§1) INS-1 cells (rat pancreatic β cell line) were cultured in an incubator at 5% CO2/95% air and 37° C. using an RPMI 1640 medium (GIBCO) containing 10 mM HEPES, 10% FBS, 1 mM sodium pyruvate, and 50 μM β-mercaptoethanol. Subculturing was carried out every 5 days, using PBS containing 0.25% trypsin/0.02% EDTA.
(§2) The cells were seeded on a 12-well plate (Iwaki Glass Co. Ltd.) at a concentration of 0.25×10^5 cells/cm^2 and were cultured for 48 hours. A cocktail of three types of siRNAs to the Reg IIIβ gene, individual siRNAs (three types), siRNA to Lamin (positive control; B-Bridge), and a cocktail of three types of non-specific siRNAs (negative control; B-Bridge) were diluted with Opti-MEM (GIBCO) so as to produce the final concentrations of 100 nM. The respective RNAs were introduced into the cells using Lipofectamine 2000 (Invitrogen Corporation) and the cells were cultured for 24 hours. After washing the cells with PBS twice, total RNAs were prepared using a SV Total Isolation Kit (Promega Corporation) and cDNA pools were then prepared using reverse transcriptase M-MLV (Invitrogen Corporation). Real-time quantitative PCR was conducted under the conditions similarly to the mouse islet case. The expression level of the rat β-actin gene was analyzed as an internal standard in a similar manner. The sequences of the siRNAs and the sequences of specific primers for PCR are shown below.

Lamin gene = test: Gene expression inhibition by siRNA, Lamin mRNA by real-time quantitative RT-PCR; format: cell-based, rat; conditions: INS-1 cells, siRNA 100 nM, 24 hours after introduction
Method: as §1, §2

INS-1 cells = test: Analysis of cell growth, [3H] thymidine incorporation in INS-1 cells; format: cell-based, rat
Method: (§3) INS-1 cells (rat pancreatic β cell line) were cultured in an incubator at 5% CO2/95% air and 37° C. using an RMI 1640 medium (GIBCO) containing 10 mM HEPES, 10% FBS, 1 mM sodium pyruvate, 50 μM β-mercaptoethanol, 100 units/ml penicillin, and 100 μg/ml streptomycin. Subculturing was carried out every 7 days, using PBS containing 0.25% trypsin/0.02% EDTA
The cells were seeded on a 48-well plate at a concentration of 1×10^5 cells/well and were cultured for 48 hours. After washing the cells with PBS, the cells were cultured in an RPMI-1640 medium (test medium) for 12 to 15 hours which had been deprived of serum and to which 3 mM glucose and 0.1% BSA had been added. […] The cells were cultured in the media for 20 hours, and after further addition of [^3H] thymidine (Amersham) to the media in order to achieve a radioactivity of 1 μCi/well, the cells were cultured for additional 4 hours. After washing the cells with PBS twice followed by with 10% trichloroacetic acid (TCA) twice, the cells were fixed by TCA treatment for 30 minutes. The cells were solublized with 0.1 N NaOH and the radioactivity of each medium was measured with a liquid scintillation counter.

Reg IIIβ = test: Real-time quantitative RT-PCR of Reg IIIβ mRNA in INS-1 cells treated with PACAP; format: cell-based, rat
Method: as §3
Real-time quantitative PCR was conducted under the conditions similarly to the mouse islet case. The expression level of the β-actin gene was analyzed as an internal standard in a similar manner. In PCR the primers having the following sequences were used.

isolated islet = conditions: cited from earlier work

Compound: (3): double-stranded siRNA to Reg IIIβ, SEQ ID NO:20/21 (chain 1 GGAAACAGCUACCAAUAUATT; chain 2 UAUAUUGGUAGCUGUUUCCTT; chemistry not given here)
- suppression of expression of Reg IIIβ gene vs negative control (Reg IIIβ gene): about 60%

Compound: Lamin siRNA: double-stranded siRNA to Lamin A/C, positive control (B-Bridge), SEQ ID NO:14/15 (chain 1 GGUGGUGACGAUCUGGGCUTT; chain 2 AGCCCAGAUCGUCACCACCTT; chemistry not given here)
- suppression of expression of Lamin gene vs negative control (Lamin gene): about 65%

Compound: CC[C@H](C)[C@H](NC(=O)CNC(=O)[C@H](CC(=O)O)NC(=O)[C@H](CO)NC(=O)[C@@H](N)Cc1c[nH]cn1)C(=O)N[C@@H](Cc1ccccc1)C(=O)N[C@H](C(=O)N[C@@H](CC(=O)O)C(=O)N[C@@H](CO)C(=O)N[C@@H](Cc1ccc(O)cc1)C(=O)N[C@@H](CO)C(=O)N[C@@H](CCCNC(=N)N)C(=O)N[C@@H](Cc1ccc(O)cc1)C(=O)N[C@@H](CCCNC(=N)N)C(=O)N[C@@H](CCCCN)C(=O)N[C@@H](CCC(N)=O)C(=O)N[C@@H](CCSC)C(=O)N[C@@H](C)C(=O)N[C@H](C(=O)N[C@@H](CCCCN)C(=O)N[C@@H](CCCCN)C(=O)N[C@@H](Cc1ccc(O)cc1)C(=O)N[C@@H](CC(C)C)C(=O)N[C@@H](C)C(=O)N[C@@H](C)C(=O)N[C@H](C(=O)N[C@@H](CC(C)C)C(=O)NCC(=O)N[C@@H](CCCCN)C(=O)N[C@@H](CCCNC(=N)N)C(=O)N[C@@H](Cc1ccc(O)cc1)C(=O)N[C@@H](CCCCN)C(=O)N[C@@H](CCC(N)=O)C(=O)N[C@@H](CCCNC(=N)N)C(=O)N[C@H](C(=O)N[C@@H](CCCCN)C(=O)N[C@@H](CC(N)=O)C(=O)N[C@@H](CCCCN)C(N)=O)C(C)C)C(C)C)C(C)C)[C@@H](C)O [PACAP]
- effect on cell growth (INS-1 cells; 3 mM glucose): No effects
- effect on cell growth (INS-1 cells; 11 mM glucose): No effects
- cell growth inhibition, dependence on PACAP concentration (INS-1 cells; high glucose concentration, varying PACAP concentration): inhibited the cell growth of INS-1 cells in a concentration-dependent manner
- change in mRNA expression of Reg IIIβ (Reg IIIβ; 3 mM glucose): no change in expression
- change in mRNA expression of Reg IIIβ (Reg IIIβ; 11 mM glucose): no change in expression
- change in mRNA expression of Reg IIIβ (Reg IIIβ; high glucose concentration (25 mM), after 4 hours): expression-induction
- change in mRNA expression of Reg IIIβ (Reg IIIβ; high glucose concentration (25 mM), until after 48 hours): continuous increase in the expression
- level at which glucose-inducible insulin secretion is promoted (isolated islet): 10^−14 M

Reference: US20060234936A1, “Method for screening substances capable of inhibiting the hyperplasia of pancreatic cells and/or the hypersecretion of insulin by pancreatic cells” (Taisho Pharmaceutical Co., Ltd., priority 2005, published 2006)
